In PubChem BioAssay (NCI):
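Compound exposure: 48 hours, 5 concentrations, 96-well plates. GI50 marks 50% less growth. At the TGI there is no net growth.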

How the values were obtained:
Assay in all cases: growth of human tumour cells (NCI), 48 h
786-0 renal = tested on: 786-0 renal
A498 renal = tested on: A498 renal
A549 NSCLC = tested on: A549 NSCLC
ACHN renal = tested on: ACHN renal
BT-549 breast = tested on: BT-549 breast
CAKI-1 renal = tested on: CAKI-1 renal
CCRF-CEM leukemia = tested on: CCRF-CEM leukemia
COLO 205 colon = tested on: COLO 205 colon
DU-145 prostate = tested on: DU-145 prostate
EKVX NSCLC = tested on: EKVX NSCLC
HCC-2998 colon = tested on: HCC-2998 colon
HCT-116 colon = tested on: HCT-116 colon
HCT-15 colon = tested on: HCT-15 colon
HL-60(TB) leukemia = tested on: HL-60(TB) leukemia
HOP-62 NSCLC = tested on: HOP-62 NSCLC
HOP-92 NSCLC = tested on: HOP-92 NSCLC
HS 578T breast = tested on: HS 578T breast
HT29 colon = tested on: HT29 colon
IGROV1 ovarian = tested on: IGROV1 ovarian
K-562 leukemia = tested on: K-562 leukemia
KM12 colon = tested on: KM12 colon
LOX IMVI melanoma = tested on: LOX IMVI melanoma
M14 melanoma = tested on: M14 melanoma
MALME-3M melanoma = tested on: MALME-3M melanoma
MDA-MB-231 breast = tested on: MDA-MB-231 breast
MDA-MB-435 = tested on: MDA-MB-435
MOLT-4 leukemia = tested on: MOLT-4 leukemia
NCI-H226 lung = tested on: NCI-H226 lung
NCI-H23 lung = tested on: NCI-H23 lung
NCI-H460 lung = tested on: NCI-H460 lung
NCI-H522 lung = tested on: NCI-H522 lung
NCI/ADR-RES ovarian = tested on: NCI/ADR-RES ovarian
OVCAR-3 ovarian = tested on: OVCAR-3 ovarian
OVCAR-4 ovarian = tested on: OVCAR-4 ovarian
OVCAR-5 ovarian = tested on: OVCAR-5 ovarian
OVCAR-8 ovarian = tested on: OVCAR-8 ovarian
PC-3 prostate = tested on: PC-3 prostate
RPMI-8226 leukemia = tested on: RPMI-8226 leukemia
RXF 393 renal = tested on: RXF 393 renal
SF-268 CNS = tested on: SF-268 CNS
SF-295 CNS = tested on: SF-295 CNS
SF-539 CNS = tested on: SF-539 CNS
SK-MEL-2 melanoma = tested on: SK-MEL-2 melanoma
SK-MEL-28 melanoma = tested on: SK-MEL-28 melanoma
SK-MEL-5 melanoma = tested on: SK-MEL-5 melanoma
SK-OV-3 ovarian = tested on: SK-OV-3 ovarian
SN12C renal = tested on: SN12C renal
SNB-19 CNS = tested on: SNB-19 CNS
SNB-75 CNS = tested on: SNB-75 CNS
SR leukemia = tested on: SR leukemia
SW-620 colon = tested on: SW-620 colon
T-47D breast = tested on: T-47D breast
TK-10 renal = tested on: TK-10 renal
U251 CNS = tested on: U251 CNS
UACC-257 melanoma = tested on: UACC-257 melanoma
UACC-62 melanoma = tested on: UACC-62 melanoma
UO-31 renal = tested on: UO-31 renal

CN1CCN(C(=O)OCc2nc3c(N4CCOCC4)nc(Cl)nc3n2C)CC1
GI50 (786-0 renal): 1560 nM | TGI (786-0 renal): 3000 nM | GI50 (A498 renal): 1150 nM | TGI (A498 renal): 2460 nM | GI50 (A549 NSCLC): 1810 nM | TGI (A549 NSCLC): 5250 nM | GI50 (ACHN renal): 831 nM | TGI (ACHN renal): 2110 nM | GI50 (BT-549 breast): 1090 nM | TGI (BT-549 breast): 2440 nM | GI50 (CAKI-1 renal): 1030 nM | TGI (CAKI-1 renal): 2310 nM | GI50 (CCRF-CEM leukemia): 313 nM | TGI (CCRF-CEM leukemia): 1780 nM | GI50 (COLO 205 colon): 1440 nM | TGI (COLO 205 colon): 4100 nM | GI50 (DU-145 prostate): 1390 nM | TGI (DU-145 prostate): 3090 nM | GI50 (EKVX NSCLC): 1590 nM | TGI (EKVX NSCLC): 2980 nM | GI50 (HCC-2998 colon): 1620 nM | TGI (HCC-2998 colon): 3150 nM | GI50 (HCT-116 colon): 343 nM | TGI (HCT-116 colon): 1620 nM | GI50 (HCT-15 colon): 905 nM | TGI (HCT-15 colon): 2790 nM | GI50 (HL-60(TB) leukemia): 650 nM | TGI (HL-60(TB) leukemia): 3280 nM | GI50 (HOP-62 NSCLC): 1530 nM | TGI (HOP-62 NSCLC): 4920 nM | GI50 (HOP-92 NSCLC): 675 nM | TGI (HOP-92 NSCLC): 2230 nM | GI50 (HS 578T breast): 1640 nM | TGI (HS 578T breast): 5380 nM | GI50 (HT29 colon): 898 nM | TGI (HT29 colon): 3170 nM | GI50 (IGROV1 ovarian): 1240 nM | TGI (IGROV1 ovarian): 2570 nM | GI50 (K-562 leukemia): 1210 nM | TGI (K-562 leukemia): 15700 nM | GI50 (KM12 colon): 2050 nM | TGI (KM12 colon): 6080 nM | GI50 (LOX IMVI melanoma): 579 nM | TGI (LOX IMVI melanoma): 1990 nM | GI50 (M14 melanoma): 1190 nM | TGI (M14 melanoma): 2650 nM | GI50 (MALME-3M melanoma): 1500 nM | TGI (MALME-3M melanoma): 2870 nM | GI50 (MDA-MB-231 breast): 566 nM | TGI (MDA-MB-231 breast): 2220 nM | GI50 (MDA-MB-435): 1160 nM | TGI (MDA-MB-435): 2440 nM | GI50 (MOLT-4 leukemia): 1190 nM | TGI (MOLT-4 leukemia): 4690 nM | GI50 (NCI-H226 lung): 1960 nM | TGI (NCI-H226 lung): 5410 nM | GI50 (NCI-H23 lung): 1550 nM | TGI (NCI-H23 lung): 3300 nM | GI50 (NCI-H460 lung): 1640 nM | TGI (NCI-H460 lung): 3510 nM | GI50 (NCI-H522 lung): 1100 nM | TGI (NCI-H522 lung): 2740 nM | GI50 (NCI/ADR-RES ovarian): 2460 nM | TGI (NCI/ADR-RES ovarian): 9590 nM | GI50 (OVCAR-3 ovarian): 547 nM | TGI (OVCAR-3 ovarian): 2150 nM | GI50 (OVCAR-4 ovarian): 1060 nM | TGI (OVCAR-4 ovarian): 2270 nM | GI50 (OVCAR-5 ovarian): 1600 nM | TGI (OVCAR-5 ovarian): 3540 nM | GI50 (OVCAR-8 ovarian): 1330 nM | TGI (OVCAR-8 ovarian): 5680 nM | GI50 (PC-3 prostate): 1330 nM | TGI (PC-3 prostate): 2920 nM | GI50 (RPMI-8226 leukemia): 330 nM | TGI (RPMI-8226 leukemia): 1630 nM | GI50 (RXF 393 renal): 1080 nM | TGI (RXF 393 renal): 2310 nM | GI50 (SF-268 CNS): 1590 nM | TGI (SF-268 CNS): 3720 nM | GI50 (SF-295 CNS): 8350 nM | TGI (SF-295 CNS): 20700 nM | GI50 (SF-539 CNS): 1390 nM | TGI (SF-539 CNS): 2730 nM | GI50 (SK-MEL-2 melanoma): 1620 nM | TGI (SK-MEL-2 melanoma): 3450 nM | GI50 (SK-MEL-28 melanoma): 1580 nM | TGI (SK-MEL-28 melanoma): 3110 nM | GI50 (SK-MEL-5 melanoma): 1550 nM | TGI (SK-MEL-5 melanoma): 2890 nM | GI50 (SK-OV-3 ovarian): 6150 nM | TGI (SK-OV-3 ovarian): 18800 nM | GI50 (SN12C renal): 1450 nM | TGI (SN12C renal): 3060 nM | GI50 (SNB-19 CNS): 1650 nM | TGI (SNB-19 CNS): 3620 nM | GI50 (SNB-75 CNS): 1350 nM | TGI (SNB-75 CNS): 2730 nM | GI50 (SR leukemia): 241 nM | TGI (SR leukemia): 1330 nM | GI50 (SW-620 colon): 484 nM | TGI (SW-620 colon): 1830 nM | GI50 (T-47D breast): 2010 nM | TGI (T-47D breast): 4990 nM | GI50 (TK-10 renal): 1590 nM | TGI (TK-10 renal): 3050 nM | GI50 (U251 CNS): 1520 nM | TGI (U251 CNS): 3390 nM | GI50 (UACC-257 melanoma): 1390 nM | TGI (UACC-257 melanoma): 3220 nM | GI50 (UACC-62 melanoma): 1380 nM | TGI (UACC-62 melanoma): 2800 nM | GI50 (UO-31 renal): 1070 nM | TGI (UO-31 renal): 2290 nM
